Measurements: the supplement of paper PMC10307832

Experiments:
Assay in all cases: relative viability (nuclei count vs DMSO), 5 days (fraction); higher = more cells survive
[1] = compound: C/C(=N\NC(=S)N1CCC1)/C2=CC=CC=N2 + COc1cc2c(Oc3ccc(NC(=O)C4(C(=O)Nc5ccc(F)cc5)CC4)cc3F)ccnc2cc1OCCCN1CCOCC1 [Foretinib] (partner 0.25 µM)
Outline: (§1)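 Lung cancer cell lines in 1536-well plates got either a single drug or a fixed anchor-drug dose together with five library-drug doses (not always all listed) in √10 steps, by pin tool, on the day after seeding. Nuclei were counted after 5 days, and relative viability is the treated-to-vehicle ratio of nuclei counts. Values are medians of duplicate plates.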

[2] = compound: C/C(=N\NC(=S)N1CCC1)/C2=CC=CC=N2 + CCNC(=O)c1noc(-c2cc(C(C)C)c(O)cc2O)c1-c1ccc(CN2CCOCC2)cc1 [Luminespib] (partner 0.01 µM)
Outline: as §1

[3] = compound: C/C(=N\NC(=S)N1CCC1)/C2=CC=CC=N2 + Cc1nc(Nc2ncc(C(=O)Nc3c(C)cccc3Cl)s2)cc(N2CCN(CCO)CC2)n1 [Dasatinib] (partner 0.075 µM)
Outline: as §1

[4] = compound: C/C(=N\NC(=S)N1CCC1)/C2=CC=CC=N2 + Nc1ncn([C@H]2C[C@H](O)[C@@H](CO)O2)c(=O)n1 [Decitabine] (partner 2 µM)
Outline: as §1

| Cell Line | relative viability ([1]; first compound 0.05 µM) | relative viability ([1]; first compound 0.1581 µM) | relative viability ([1]; first compound 0.5 µM) | relative viability ([1]; first compound 1.581 µM) | relative viability ([1]; first compound 5 µM) | relative viability ([2]; first compound 0.05 µM) | relative viability ([2]; first compound 0.1581 µM) | relative viability ([2]; first compound 0.5 µM) | relative viability ([2]; first compound 1.581 µM) | relative viability ([2]; first compound 5 µM) | relative viability ([3]; first compound 0.05 µM) | relative viability ([3]; first compound 0.1581 µM) | relative viability ([3]; first compound 0.5 µM) | relative viability ([3]; first compound 1.581 µM) | relative viability ([3]; first compound 5 µM) | relative viability ([4]; first compound 0.05 µM) | relative viability ([4]; first compound 0.1581 µM) | relative viability ([4]; first compound 0.5 µM) | relative viability ([4]; first compound 1.581 µM) | relative viability ([4]; first compound 5 µM) |
| --- | --- | --- | --- | --- | --- | --- | --- | --- | --- | --- | --- | --- | --- | --- | --- | --- | --- | --- | --- | --- |
| HARA | 0.207 | 0.307 | 0.09 | 0.0777 | 0.0635 | 0.124 | 0.121 | 0.0663 | 0.0648 | 0.0838 | 0.0909 | 0.0673 | 0.0699 | 0.063 | 0.083 | 0.229 | 0.168 | 0.153 | 0.242 | 0.164 |
| HCC-15 | 0.131 | 0.0633 | 0.115 | 0.0865 | 0.0901 | 0.128 | 0.0546 | 0.119 | 0.0758 | 0.072 | 0.0569 | 0.0708 | 0.0679 | 0.0571 | 0.0669 | 0.0738 | 0.16 | 0.117 | 0.0902 | 0.0924 |
| HCC-44 | – | – | – | – | – | 0.326 | 0.307 | 0.283 | 0.32 | 0.242 | – | – | – | – | – | 0.559 | 0.544 | 0.52 | 0.551 | 0.428 |
| HCC-78 | 0.488 | 0.451 | 0.367 | 0.237 | 0.235 | – | – | – | – | – | 0.264 | 0.256 | 0.268 | 0.181 | 0.157 | 0.453 | 0.413 | 0.407 | 0.244 | 0.22 |
| HCC-366 | 0.127 | 0.346 | 0.0579 | 0.0562 | 0.0285 | – | – | – | – | – | 0.0305 | 0.0271 | 0.0302 | 0.0382 | 0.031 | 0.103 | 0.0378 | 0.0365 | 0.035 | 0.0275 |
| HCC-827 | 0.538 | 0.583 | 0.239 | 0.223 | 0.17 | 0.254 | 0.468 | 0.163 | 0.124 | 0.188 | 0.292 | 0.302 | 0.21 | 0.241 | 0.283 | 0.253 | 0.244 | 0.237 | 0.182 | 0.185 |
| HOP-62 | 0.21 | 0.243 | 0.114 | 0.116 | 0.112 | 0.215 | 0.12 | 0.151 | 0.129 | 0.119 | 0.0752 | 0.0748 | 0.0769 | 0.0912 | 0.0784 | 0.121 | 0.142 | 0.0886 | 0.106 | 0.117 |
| IA-LM | 0.0694 | 0.0465 | 0.0654 | 0.0441 | 0.0339 | – | – | – | – | – | – | – | – | – | – | – | – | – | – | – |
| LC-2-ad | 0.225 | 0.309 | 0.267 | 0.227 | 0.235 | 0.269 | 0.273 | 0.252 | 0.219 | 0.247 | 0.191 | 0.187 | 0.143 | 0.165 | 0.166 | 0.267 | 0.244 | 0.204 | 0.227 | 0.22 |
| LCLC-97TM1 | 0.511 | 0.752 | 0.193 | 0.12 | 0.155 | 0.415 | 0.623 | 0.109 | 0.136 | 0.151 | 0.163 | 0.161 | 0.143 | 0.0911 | 0.13 | 0.0771 | 0.284 | 0.0691 | 0.0739 | 0.0762 |
| LCLC-103H | 0.176 | 0.311 | 0.221 | 0.133 | 0.167 | 0.174 | 0.204 | 0.233 | 0.182 | 0.158 | 0.123 | 0.136 | 0.156 | 0.103 | 0.164 | 0.346 | 0.684 | 0.329 | 0.342 | 0.291 |
| LK-2 | 0.134 | 0.183 | 0.202 | 0.133 | 0.146 | 0.16 | 0.147 | 0.158 | 0.188 | 0.131 | 0.141 | 0.187 | 0.17 | 0.121 | 0.151 | 0.0805 | 0.111 | 0.0805 | 0.0894 | 0.0937 |
| NCI-H522 | – | – | – | – | – | 0.353 | 0.375 | 0.369 | 0.412 | 0.49 | – | 0.332 | 0.494 | – | 0.416 | 0.402 | 0.456 | 0.333 | 0.345 | 0.385 |
| NCI-H1299 | 0.107 | 0.133 | 0.191 | 0.187 | 0.117 | – | – | – | – | – | – | – | – | – | – | – | – | – | – | – |
| NCI-H1563 | 0.543 | 0.63 | 0.576 | 0.529 | 0.581 | 0.464 | 0.435 | 0.472 | 0.429 | 0.467 | 0.394 | 0.462 | 0.408 | 0.229 | 0.312 | – | – | – | – | – |
| NCI-H1648 | – | – | – | – | – | – | – | – | – | – | – | – | – | – | – | 0.274 | 0.248 | 0.3 | 0.338 | 0.353 |
| NCI-H1703 | 0.163 | 0.142 | 0.163 | 0.206 | 0.246 | – | – | – | – | – | – | – | – | – | – | – | – | – | – | – |
| NCI-H1792 | – | – | – | – | – | 0.23 | 0.187 | 0.176 | 0.169 | 0.157 | 0.483 | 0.294 | 0.256 | 0.271 | 0.196 | 0.333 | 0.172 | 0.102 | 0.0665 | 0.0895 |
| NCI-H2228 | 0.227 | 0.129 | 0.145 | – | 0.113 | 0.168 | 0.119 | 0.129 | – | 0.158 | 0.133 | 0.121 | 0.135 | – | 0.0925 | – | – | – | – | – |
